Consider ten compounds from patent publication US10745416B2, “Macrocyclic compounds for treating disease” (Turning Point Therapeutics, Inc., priority 2017, dated 2020).

Structures are written as SMILES. Where only a bound is given, the exact number is not on record here.

Common to all, as to assay: Cell proliferation assay (CellTiter-Glo, 72 hours)
In general terms: Cellular ATP, detected with luciferase, serves as a proxy for viable cell number.

Assay [1] addresses T1, BaF3 EML4-ALK (Homo sapiens, UniProt Q9UM73).
T1 construct: The EML4-ALK gene (variant 1) was synthesized at GenScript and cloned into pCDH-CMV-MCS-EF1-Puro plasmid (System Biosciences, Inc); fused on or other part: Q9HC35 (Echinoderm microtubule-associated protein-like 4)
The class given is cell-based. The note with it: anti-cell proliferation. Summed up:
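Ba/F3 cells were stably transduced with wild-type EML4-ALK variant 1 and selected for IL-3-independent growth. Cells were seeded for 24 h, then exposed to compounds for 72 h at 37 °C, 5% CO2. Viability was read as ATP luminescence and IC50 values were fitted.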

In assay [2] the test system is KM12 cell (TPM3-TRKA). The class given is cell-based, human. To be noted: Homo sapiens, KM12, anti-cell proliferation. In a few lines: (§1)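 Cells used were KG-1 (AML), TT medullary thyroid carcinoma ([…]) and KM12 colon (TPM3-TRKA). Viability was read by CellTiter-Glo ATP luminescence, and IC50 derived by curve fitting.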
The test system of assay [3] is KG-1. Format: cell-based, human. The note with it: Homo sapiens, KG-1, anti-cell proliferation. Summed up:
as §1

The target in assay [4] is T2, BaF3 KIF5B-RET (Homo sapiens, UniProt P07949).
T2 construct: fused on or other part: P33176 (Kinesin-1 heavy chain)
T2 sequence (P07949 whole entry, change not shown, the tested form may be a part): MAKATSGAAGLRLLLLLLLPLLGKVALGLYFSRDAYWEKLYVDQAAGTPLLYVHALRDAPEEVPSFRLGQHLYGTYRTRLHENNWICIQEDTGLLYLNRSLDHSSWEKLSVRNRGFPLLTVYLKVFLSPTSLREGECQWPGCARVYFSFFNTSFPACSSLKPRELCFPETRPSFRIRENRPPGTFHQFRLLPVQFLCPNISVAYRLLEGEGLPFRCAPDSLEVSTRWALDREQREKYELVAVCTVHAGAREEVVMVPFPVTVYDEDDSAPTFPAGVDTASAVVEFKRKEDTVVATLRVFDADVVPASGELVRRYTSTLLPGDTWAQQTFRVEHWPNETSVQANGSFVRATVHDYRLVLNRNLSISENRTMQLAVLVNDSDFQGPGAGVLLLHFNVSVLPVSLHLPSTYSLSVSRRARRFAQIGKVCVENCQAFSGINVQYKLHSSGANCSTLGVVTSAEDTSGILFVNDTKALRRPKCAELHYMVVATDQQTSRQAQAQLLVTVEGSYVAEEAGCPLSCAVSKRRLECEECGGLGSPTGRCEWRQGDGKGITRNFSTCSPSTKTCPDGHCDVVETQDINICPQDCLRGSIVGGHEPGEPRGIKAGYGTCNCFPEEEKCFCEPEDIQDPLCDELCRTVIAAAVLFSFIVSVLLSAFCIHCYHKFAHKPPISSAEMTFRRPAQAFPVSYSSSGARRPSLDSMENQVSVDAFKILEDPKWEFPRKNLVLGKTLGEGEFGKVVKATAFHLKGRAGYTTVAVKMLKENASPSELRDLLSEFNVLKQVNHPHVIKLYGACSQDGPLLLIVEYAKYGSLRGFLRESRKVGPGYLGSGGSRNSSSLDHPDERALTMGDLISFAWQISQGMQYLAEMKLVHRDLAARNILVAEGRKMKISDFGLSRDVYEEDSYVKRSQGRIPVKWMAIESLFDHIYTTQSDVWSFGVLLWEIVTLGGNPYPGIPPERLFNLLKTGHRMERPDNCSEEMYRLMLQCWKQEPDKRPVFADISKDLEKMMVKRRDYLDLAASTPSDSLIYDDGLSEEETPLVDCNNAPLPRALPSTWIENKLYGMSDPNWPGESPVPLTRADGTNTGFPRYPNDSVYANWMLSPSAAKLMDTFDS
Format: cell-based. The note with it: anti-cell proliferation, read-out: BaF3 KIF5B-RET IC50. Summed up:
(§2)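 Ba/F3 cells were lentivirally transduced with wild-type or mutant KIF5B-RET, puromycin-selected and grown without IL-3. CellTiter-Glo ATP luminescence read viability, and IC50 values came from curve fitting.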

Assay [5] concerns the target T3, BaF3 KIF5B-RET_V804M (Homo sapiens, UniProt P07949, V804M, cells depend on it).
T3 construct: fused on or other part: P33176 (Kinesin-1 heavy chain)
Format: cell-based. The note with it: anti-cell proliferation, read-out: BaF3 KIF5B-RET_V804M IC50. In a few lines:
as §2

Assay [6] has as its system TT cell (RET C634W). The class given is cell-based. To be noted: Homo sapiens, anti-cell proliferation. As to the method: Human medulla thyroid carcinoma cell line TT (containing RET […] mutation) and acute myelogenous cell line KG-1 were purchased from ATCC. Human colon cancer cell line KMI2 (containing TPM3-TRKA) was obtained from NCI.
Two thousand cells per well were seeded in 384 well white plate for 24 hrs, and then treated with compounds for 72 hours (37° C., 5% CO2). Cell proliferation was measured using CellTiter-Glo luciferase-based ATP detection assay (Promega) following the manufactures's protocol. IC50 determinations were performed using GraphPad Prism software (GraphPad, Inc., San Diego, Calif.).

In assay [7] the target is T4, BaF3 KIF5B-RET_G810R (Homo sapiens, UniProt P07949, G810R, cells depend on it).
T4 construct: fused on or other part: P33176 (Kinesin-1 heavy chain)
T4 sequence (P07949 whole entry G810R, the tested form may be a part): as the sequence (P07949 whole entry, change not shown, the tested form may be a part) above, with G810R counted along it
Format: cell-based. The note with it: anti-cell proliferation, read-out: BaF3 KIF5B-RET_G810R IC50.

T1 sequence (Q9UM73 whole entry, change not shown, the tested form may be a part): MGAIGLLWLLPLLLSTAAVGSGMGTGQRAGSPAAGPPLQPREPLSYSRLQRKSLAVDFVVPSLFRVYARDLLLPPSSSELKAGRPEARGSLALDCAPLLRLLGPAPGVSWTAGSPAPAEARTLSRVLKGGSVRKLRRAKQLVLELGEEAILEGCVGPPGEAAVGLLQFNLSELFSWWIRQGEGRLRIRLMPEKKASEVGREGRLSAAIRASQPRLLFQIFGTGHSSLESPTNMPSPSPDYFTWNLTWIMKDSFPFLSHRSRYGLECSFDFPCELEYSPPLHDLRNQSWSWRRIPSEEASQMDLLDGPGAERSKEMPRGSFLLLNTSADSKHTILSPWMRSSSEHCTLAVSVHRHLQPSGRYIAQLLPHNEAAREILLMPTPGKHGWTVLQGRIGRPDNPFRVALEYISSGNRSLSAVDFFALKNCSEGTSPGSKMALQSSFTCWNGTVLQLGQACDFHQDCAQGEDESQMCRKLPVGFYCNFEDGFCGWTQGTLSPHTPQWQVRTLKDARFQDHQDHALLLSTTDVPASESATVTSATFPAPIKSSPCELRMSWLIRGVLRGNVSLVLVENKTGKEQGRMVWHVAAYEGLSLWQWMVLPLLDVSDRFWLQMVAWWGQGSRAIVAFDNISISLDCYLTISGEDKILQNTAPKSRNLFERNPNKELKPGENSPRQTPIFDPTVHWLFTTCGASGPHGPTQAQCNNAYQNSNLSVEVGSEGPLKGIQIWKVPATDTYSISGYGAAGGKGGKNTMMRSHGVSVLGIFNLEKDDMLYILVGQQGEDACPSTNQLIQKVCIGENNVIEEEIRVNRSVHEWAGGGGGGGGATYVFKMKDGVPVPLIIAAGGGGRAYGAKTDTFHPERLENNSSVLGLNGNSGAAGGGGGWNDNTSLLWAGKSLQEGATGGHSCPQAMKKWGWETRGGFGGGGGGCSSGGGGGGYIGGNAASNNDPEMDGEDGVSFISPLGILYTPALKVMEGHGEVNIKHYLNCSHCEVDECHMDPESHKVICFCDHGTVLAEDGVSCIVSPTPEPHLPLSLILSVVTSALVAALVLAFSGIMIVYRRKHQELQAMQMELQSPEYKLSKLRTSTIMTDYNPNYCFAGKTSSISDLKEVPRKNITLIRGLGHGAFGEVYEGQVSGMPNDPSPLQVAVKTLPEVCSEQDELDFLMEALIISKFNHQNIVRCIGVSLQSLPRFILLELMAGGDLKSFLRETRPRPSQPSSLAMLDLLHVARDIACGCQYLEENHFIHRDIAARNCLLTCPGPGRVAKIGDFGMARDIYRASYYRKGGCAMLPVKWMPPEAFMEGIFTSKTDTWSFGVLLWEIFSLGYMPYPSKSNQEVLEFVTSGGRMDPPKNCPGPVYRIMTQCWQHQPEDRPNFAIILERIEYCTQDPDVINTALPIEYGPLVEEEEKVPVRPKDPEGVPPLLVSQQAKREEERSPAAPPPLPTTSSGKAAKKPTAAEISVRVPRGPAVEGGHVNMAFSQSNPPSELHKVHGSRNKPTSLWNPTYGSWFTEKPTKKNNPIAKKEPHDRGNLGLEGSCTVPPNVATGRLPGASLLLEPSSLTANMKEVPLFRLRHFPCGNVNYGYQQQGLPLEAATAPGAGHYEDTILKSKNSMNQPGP
T3 sequence (P07949 whole entry V804M, the tested form may be a part): as the sequence (P07949 whole entry, change not shown, the tested form may be a part) above, with V804M counted along it

Usually IC50 stands for the concentration that inhibits the measured activity by half. Lower therefore signals higher potency. As for `C[C@H]1CNC(=O)c2cnn3cc4c(nc23)N(Cc2cc(F)ccc2O1)[C@@H]1CCC[C@H]1O4` [Compound 2], the GI50 in assay [1] is > 10000 nM; in assay [4], 1450 nM; in assay [5] it was > 10000 nM. Moreover, the half-maximal inhibitory concentration (IC50) in assay [2] came out at 255 nM; in assay [3] it was 5000 nM; in assay [6] it was 1780 nM.

As to `C[C@H]1CNC(=O)c2cnn3cc4c(nc23)N(Cc2cc(F)ccc2O1)[C@@H]1COC[C@@H]1O4` [Compound 4, (3aR,11S,20aS)-7-fluoro-11-methyl-1,3,3a,12,13,20a-hexahydro-5H-17-19-(metheno)furo[3′,4′:5,6][1,4] oxazino[3,4-i]pyrazolo[4,3-f][1,4,8,10]benzoxatriacyclotridecin-14(11H)-one], the GI50 in assay [1] worked out at 3290 nM; in assay [4], 184 nM; in assay [5], 5000 nM. Also, the concentration for half-maximal inhibition (IC50) stood at 22 nM in assay [2], 5000 nM in assay [3] and 462 nM in assay [6].

For the compound `C[C@H]1CNC(=O)c2cnn3cc4c(nc23)N(Cc2cc(F)cc(F)c2O1)[C@@H]1CCC[C@@H]1O4` [Compound 3, (3aR,11S,20aS)-7,9-difluoro-11-methyl-2,3,3a,12,13,20a-hexahydro-1H,5H-17-19-(metheno)cyclopenta[5,6][1,4] oxazino[3,4-i]pyrazolo[4,3-f][1,4,8,10]benzoxatriacyclotridecin-14(11H)-one], the GI50 is 1500 nM in assay [1], < 0.2 nM in assay [4] and 1700 nM in assay [5]. Besides, the IC50 in assay [2] was found to be 4.2 nM; in assay [3] it was 505 nM; in assay [6], 7.9 nM.

As to `C[C@H]1CCOc2ncc(F)cc2CN2c3nc4c(cnn4cc3O[C@H]3CCC[C@H]32)C(=O)N1` [Compound 28, (3aR,13S,21aS)-7-fluoro-13-methyl-2,3,3a,11,12,13,14,21a-octahydro-1H,5H,15H-18,20-(metheno)cyclopenta[5,6][1,4]oxazino[4,3-e]pyrazolo[3,4-h]pyrido[2,3-b][1,5,7,11]oxatriazacyclotetradecin-15-one], the GI50 in assay [1] amounted to 803 nM; in assay [4], 1.5 nM; in assay [7] it was 72 nM; in assay [5] it was 2000 nM. For the same compound, the values for the IC50 in assay [2] and in assay [3] were 11.8 nM and 22.8 nM, respectively.

In the case of `O=C1NC2(CCC2)CCOc2ncc(F)cc2CN2c3nc4c1cnn4cc3O[C@H]1CCC[C@H]12` [Compound 45], the GI50 in assay [1] was determined as 3110 nM; in assay [4], 526 nM; in assay [7], 1710 nM; in assay [5], 5000 nM. Moreover, the results for the IC50 in assay [2] and in assay [3] were 202 nM and 1130 nM, respectively.

Turning to `O=C1NC[C@@H](CO)Oc2ncc(F)cc2CN2c3nc4c1cnn4cc3O[C@H]1CCC[C@H]12` [Compound 49, (3aR,11S,20aS)-7-fluoro-11-(hydroxymethyl)-2,3,3a,12,13,20a-hexahydro-1H,5H-17,19-(metheno)cyclopenta[5,6][1,4]oxazino[3,4-i]pyrazolo[4,3-f]pyrido[3,2-l][1,4,8,10]oxatriazacyclotridecin-14(11H)-one], the GI50 in assay [1] is > 10000 nM; in assay [4] it was 397 nM; in assay [7], 1640 nM; in assay [5], 5000 nM. Further, the IC50 was found to be 1460 nM in assay [2] and 5240 nM in assay [3].

With `C[C@H]1CNC(=O)c2cnn3cc4c(nc23)N(Cc2cc(F)cnc2O1)[C@@H]1CCCC[C@@H]1O4` [Compound 12, (4aR,12S,21aS)-8-fluoro-12-methyl-1,2,3,4,4a,13,14,21a-octahydro-6H-18, 20-(metheno)pyrazolo[4′,3′:6,7]pyrido [3′,2′:12,13][1,4,8, 10]oxatriazacyclotridecino[9,10-c][1,4]benzoxazin-15(12H)-one], the GI50 in assay [1] amounted to 2710 nM; in assay [4], 101 nM; in assay [7] it was 1010 nM; in assay [5], 4620 nM. Also, the IC50 in assay [2] was found to be 13.8 nM; in assay [3] it was 160 nM.

Take `C[C@H]1CNC(=O)c2cnn3cc4c(nc23)N(Cc2cc(F)cnc2OC1)[C@@H]1CCC[C@@H]1O4` [Compound 17, (3aR,12S,21aS)-7-fluoro-12-methyl-2,3,3a,11,12,13,14,21a-octahydro-1H,5H, 15H-18,20-(metheno)cyclopenta[5,6] [1,4]oxazino[4,3-e]pyrazolo[3,4-h]pyrido [2,3-b][1,5,7,11]oxatriazacyclotetradecin-15-one]: the GI50 came out at 616 nM in assay [1], 1.8 nM in assay [4], 10.7 nM in assay [7] and 2730 nM in assay [5]. Besides, the IC50 in assay [2] came out at 4 nM; in assay [3], 5 nM.

Turning to `O=C1NC[C@H](O)COc2ncc(F)cc2CN2c3nc4c1cnn4cc3O[C@H]1CCC[C@H]12` [Compound 32, (3aR,12S,21aS)-7-fluoro-12-hydroxy-2,3,3a,11,12,13,14,21a-octahydro-1H,5H,15H-18,20-(metheno)cyclopenta[5,6][1,4]oxazino[4,3-e]pyrazolo[3,4-h]pyrido[2,3-b][1,5,7,11]oxatriazacyclotetradecin-15-one], the GI50 in assay [1] came out at 1060 nM; in assay [4], 89 nM; in assay [7], 501 nM; in assay [5] it was 5720 nM. Moreover, the IC50 was 20.2 nM in assay [2] and 223 nM in assay [3].

As to `C[C@@H]1CNC(=O)c2cnn3cc4c(nc23)N(Cc2cc(F)cnc2O1)[C@H]1CCC[C@H]1O4` [Compound 44, (3aS,11R,20aR)-7-fluoro-11-methyl-2,3 3a,12,13,20a-hexahydro-1H,5H-17,19-(metheno)cyclopenta[5,6][1,4] oxazino[3,4-i]pyrazolo[4,3-f]pyrido[3,2-l][1,4,8,10]oxatriazacyclotridecin-14(11H)-one], the GI50 in assay [1], in assay [4], in assay [7] and in assay [5] was > 10000 nM throughout. Further, the 50% inhibitory concentration (IC50) in assay [2] was 668 nM; in assay [3] it was > 10000 nM.
